Experimental data taken from BindingDB's records for doi:10.1016/j.bmcl.2006.12.033 (F. Hoffmann-La Roche, 2007).

Tests used:
[1] = molecular target: T1, Metabotropic glutamate receptor 5 (Homo sapiens, UniProt P41594); assay: Displacement of [3H]MPEP from mGlu5 receptor
[2] = molecular target: T1, Metabotropic glutamate receptor 5; assay: Antagonist activity at mGluR5 by FLIPR

T1 sequence (P41594 whole entry): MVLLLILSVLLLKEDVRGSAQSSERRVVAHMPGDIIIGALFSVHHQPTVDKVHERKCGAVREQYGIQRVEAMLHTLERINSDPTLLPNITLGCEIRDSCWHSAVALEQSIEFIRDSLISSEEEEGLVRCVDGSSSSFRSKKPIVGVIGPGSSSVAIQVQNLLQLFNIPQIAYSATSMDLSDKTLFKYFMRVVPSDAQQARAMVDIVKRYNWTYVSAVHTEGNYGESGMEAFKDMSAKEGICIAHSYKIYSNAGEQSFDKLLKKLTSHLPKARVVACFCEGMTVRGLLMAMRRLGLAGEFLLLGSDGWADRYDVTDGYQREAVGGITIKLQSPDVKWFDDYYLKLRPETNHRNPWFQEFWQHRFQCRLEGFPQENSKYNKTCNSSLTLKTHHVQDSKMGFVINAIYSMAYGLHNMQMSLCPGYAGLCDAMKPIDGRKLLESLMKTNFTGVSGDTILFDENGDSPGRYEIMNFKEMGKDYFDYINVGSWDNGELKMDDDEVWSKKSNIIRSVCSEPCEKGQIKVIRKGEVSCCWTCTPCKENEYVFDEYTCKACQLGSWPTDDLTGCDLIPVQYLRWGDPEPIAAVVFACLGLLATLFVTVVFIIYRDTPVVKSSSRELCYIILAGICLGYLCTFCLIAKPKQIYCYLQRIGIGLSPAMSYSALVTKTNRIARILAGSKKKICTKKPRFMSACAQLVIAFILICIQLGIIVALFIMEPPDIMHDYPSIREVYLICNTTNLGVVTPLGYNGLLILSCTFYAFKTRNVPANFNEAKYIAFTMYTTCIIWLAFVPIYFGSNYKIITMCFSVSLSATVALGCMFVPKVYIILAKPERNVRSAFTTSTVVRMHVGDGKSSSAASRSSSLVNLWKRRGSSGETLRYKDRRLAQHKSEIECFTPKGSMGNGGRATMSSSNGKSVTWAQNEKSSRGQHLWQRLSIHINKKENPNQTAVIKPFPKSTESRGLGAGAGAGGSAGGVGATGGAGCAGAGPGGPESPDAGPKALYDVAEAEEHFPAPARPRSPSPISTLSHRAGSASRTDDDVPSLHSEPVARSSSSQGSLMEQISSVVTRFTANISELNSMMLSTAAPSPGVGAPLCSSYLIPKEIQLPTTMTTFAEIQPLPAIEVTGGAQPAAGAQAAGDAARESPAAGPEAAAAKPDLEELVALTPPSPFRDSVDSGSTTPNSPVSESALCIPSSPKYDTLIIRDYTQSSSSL

IC50 [1] [µM] | IC50 [2] [µM] | Compound
> 5 | > 5 | Cn1cc(O)nc1NC(=O)Nc1cccnc1 [(E)-1-(1-methyl-4-oxoimidazolidin-2-ylidene)-3-(pyridin-3-yl)urea]
> 5 | > 5 | Cn1cc(O)nc1NC(=O)Nc1ccc(Cl)cc1 [(E)-1-(4-chlorophenyl)-3-(1-methyl-4-oxoimidazolidin-2-ylidene)urea]
